In patent US20240277795A1, “INHIBITORS OF CYSTEINE PROTEASES AND METHODS OF USE THEREOF” (Pardes Biosciences, Inc., priority 2021, published 2024):
pEC50, pIC50: −log10 of the molar value. Where two headings read alike, the source gives them in different places.

Experiments:
HCoV 229E = HCoV 229E cytopathic effect (CPE) assay; type: cell-based; conditions: read-out: 229E CPE EC50
Procedure: (§1) Compounds were assayed using standard methods against multiple coronaviral strains, including HCoV 229E and OC43 strains. The antiviral activity of compounds was calculated based on the protection of the virus-induced CPE at each concentration normalized by the virus control.
(§2) Reagents and instruments used in this assay include luminescent cell viability assay kit CellTiter Glo (Promega) and Microplate Reader Synergy2 (BioTek).
Cytopathic effect (CPE) was measured by CellTiter Glo following the manufacturer's manual. The antiviral activity of compounds was calculated based on the protection of the virus-induced CPE at each concentration normalized by the virus control.
(§3) The cytotoxicity of compounds was assessed under the same conditions, but without virus infection, in parallel. Cell viability was measured with CellTiter Glo. The antiviral activity and cytotoxicity of compounds were expressed as % Inhibition and % Viability, respectively, and calculated with formulas.

SARS-COV2 Mpro = SARS-COV2 Mpro (Severe acute respiratory syndrome coronavirus 2, UniProt P0DTD1); assay: COVID-19 (nCoV-2019, SARS-CoV2) Mpro enzymatic assay; type: biochemical
Procedure: (§4) Compounds were assayed using standard methods to assess compound activity and IC50. As an exemplary for assessment of the SARS-COV2 Mpro, the C-His6-tagged Mpro (NC_045512) was cloned, expressed in E. coli and purified. The assay buffer contained 20 mM of Tris-HCl (pH 7.3), 100 mM of NaCl, 1 mM of EDTA, 5 mM of TCEP and 0.1% BSA. The final concentrations of the Mpro protein and substrate were 25 nM and 25 μM, respectively, in the Mpro enzymatic assay.
The compounds were added to an assay plate. For 100% inhibition control (HPE, hundred percent effect), 1 μM GC376 was added.
(§5) IC50 values of compounds were calculated with the GraphPad Prism software using the nonlinear regression model of log(inhibitor) vs. response—Variable slope (four parameters). The inhibition activity was calculated using the formula below, IC50 values is calculated using the Inhibition % data.
[formula] • #HEP: Hundred percent effect controls. […] Containing enzyme+substrate, no compound. • Sample: Compound activity testing wells. Containing compound+enzyme+substrate. • BG: Compound background control wells. Containing compound+substrate, no enzyme.

HCov OC43 = assay: HCoV OC43 cytopathic effect (CPE) assay; type: cell-based; conditions: Betacoronavirus 1, OC43; Table 4; CellTiter Glo
Procedure: as §1, §2
Reference compound used was remdesivir; detection reagent: CellTiter Glo.) The CPE were measured by CellTiter Glo following the manufacturer's manual. The antiviral activity of compounds was calculated based on the protection of the virus-induced CPE at each concentration normalized by the virus control.
as §3

OC43 Mpro = OC43 Mpro (Human coronavirus OC43, UniProt P0C6X6); assay: OC43 Mpro enzymatic assay; type: biochemical, HCoV OC43
Procedure: as §4, with “assay. The Km of the Mpro substrate for the protease was 13.5 μM.” for “assay.”
(§6) The compounds were added to an assay plate. For 100% inhibition control (HPE, hundred percent effect), 1 μM GC376 was added. For no inhibition control (ZPE, zero percent effect), no compound was added.
as §5
(§7) [formula] • #HEP: Hundred percent effect controls. Containing substrate+enzyme+1 μM GC376. • ZPE: Zero percent effective controls. Containing enzyme+substrate, no compound. • Sample: Compound activity testing wells. Containing compound+enzyme+substrate. • BG: Compound background control wells. Containing compound+substrate, no enzyme.

229E Mpro = 229E Mpro (Human coronavirus 229E, UniProt P0C6X1); assay: 229E Mpro enzymatic assay; type: biochemical, HCoV 229E
Procedure: as §4, with “assay. The Km of the Mpro substrate for the protease was 13.5 μM.” for “assay.”
as §6, §5, §7

[1] = Table 3, read-out: COVID-19 Mpro IC50
[2] = Table 5, read-out: COVID-19 Mpro IC50

Sequence of 229E Mpro (P0C6X1 2966-3267): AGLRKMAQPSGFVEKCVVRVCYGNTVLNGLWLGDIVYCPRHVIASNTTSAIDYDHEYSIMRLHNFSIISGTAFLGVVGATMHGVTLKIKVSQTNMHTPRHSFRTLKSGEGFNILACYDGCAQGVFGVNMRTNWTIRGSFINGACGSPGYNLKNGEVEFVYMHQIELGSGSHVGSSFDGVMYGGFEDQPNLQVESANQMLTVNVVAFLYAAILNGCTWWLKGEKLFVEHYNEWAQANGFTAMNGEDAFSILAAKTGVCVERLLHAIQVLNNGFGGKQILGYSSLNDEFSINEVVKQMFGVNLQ
Sequence of OC43 Mpro (P0C6X6 3247-3549): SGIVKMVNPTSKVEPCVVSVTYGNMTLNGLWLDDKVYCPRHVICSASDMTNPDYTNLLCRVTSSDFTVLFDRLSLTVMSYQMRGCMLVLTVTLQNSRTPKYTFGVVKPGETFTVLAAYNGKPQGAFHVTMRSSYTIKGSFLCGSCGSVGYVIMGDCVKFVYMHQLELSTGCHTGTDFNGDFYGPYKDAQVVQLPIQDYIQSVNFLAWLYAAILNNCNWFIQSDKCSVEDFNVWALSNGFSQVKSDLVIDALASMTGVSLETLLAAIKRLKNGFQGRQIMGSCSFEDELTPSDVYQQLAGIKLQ

N#C[C@H](C[C@@H]1CCCNC1=O)NC(=O)[C@H](CC1CC1)NC(=O)[C@H](Cc1ccc(F)cc1)NC(=O)OCc1ccccc1 [Compound 123] gave a pEC50 (HCoV 229E; Table 4, CellTiter Glo) of 4.52 to 5.00, a pIC50 (SARS-COV2 Mpro) of 4.52 to 5.00 and a pEC50 (HCov OC43) of 4.52 to 5.00. The pIC50 (OC43 Mpro; Table 3) was 5.00 to 5.70 and the pIC50 (229E Mpro; Table 3) was > 5.70.

For CC(C)(C)C(=O)N[C@H](C(=O)N1C[C@H]2[C@@H]([C@H]1C(=O)N[C@H](C#N)C[C@@H]1CC3(CC3)NC1=O)C2(C)C)C(C)(C)C [Compound 135, (1R,2S,5S)—N-[(1S)-1-cyano-2-[(6R)-5-oxo-4-azaspiro[2.4]heptan-6-yl]ethyl]-3-[(2S)-2-(2,2-dimethylpropanoylamino)-3,3-dimethyl-butanoyl]-6,6-dimethyl-3-azabicyclo[3.1.0]hexane-2-carboxamide], the pEC50 (HCoV 229E; Table 4, CellTiter Glo) was > 5.70, the pIC50 (SARS-COV2 Mpro) was > 5.70 and the pIC50 (OC43 Mpro; Table 3) was > 5.70. The pIC50 (229E Mpro; Table 3) was > 5.70.

For CC(C)(C)[C@H](NC(=O)OC1CCOC1)C(=O)N1C[C@H]2[C@@H]([C@H]1C(=O)N[C@H](C#N)C[C@@H]1CC3(CC3)NC1=O)C2(C)C (stereo partly drawn) [Compound 134, tetrahydrofuran-3-yl N-[(1S)-1-[(1R,2S,5S)-2-[[(1S)-1-cyano-2-[(6R)-5-oxo-4-azaspiro[2.4]heptan-6-yl]ethyl]carbamoyl]-6,6-dimethyl-3-azabicyclo[3.1.0]hexane-3-carbonyl]-2,2-dimethyl-propyl]carbamate], the pEC50 (HCoV 229E; Table 4, CellTiter Glo) was > 5.70, the pIC50 (SARS-COV2 Mpro) was > 5.70 and the pIC50 (OC43 Mpro; Table 3) was > 5.70. The pIC50 (229E Mpro; Table 3) was > 5.70.

In the case of CC(C)(C)[C@H](NC(=O)OCC(F)(F)F)C(=O)N1C[C@H]2[C@@H]([C@H]1C(=O)N[C@H](C#N)C[C@@H]1CC3(CC3)NC1=O)C2(C)C [Compound 132, 2,2,2-trifluoroethyl ((S)-1-((1R,2S,5S)-2-(((S)-1-cyano-2-((R)-5-oxo-4-azaspiro[2.4]heptan-6-yl)ethyl)carbamoyl)-6,6-dimethyl-3-azabicyclo[3.1.0]hexan-3-yl)-3,3-dimethyl-1-oxobutan-2-yl)carbamate], the pEC50 (HCoV 229E) was > 5.70, the pIC50 (SARS-COV2 Mpro; [1]) was > 5.70 and the pIC50 (OC43 Mpro; Table 3) was > 5.70. The pIC50 (229E Mpro; Table 3) was > 5.70.

In the case of CC(C)(C)[C@H](NC(=O)C1(C(F)(F)F)CC1)C(=O)N1C[C@H]2[C@@H]([C@H]1C(=O)N[C@H](C#N)C[C@@H]1CC3(CC3)NC1=O)C2(C)C [Compound 136, (1R,2S,5S)—N-[(1S)-1-cyano-2-[(6R)-5-oxo-4-azaspiro[2.4]heptan-6-yl]ethyl]-3-[(2S)-3,3-dimethyl-2-[[1-(trifluoromethyl)cyclopropanecarbonyl]amino]butanoyl]-6,6-dimethyl-3-azabicyclo[3.1.0]hexane-2-carboxamide], the pEC50 (HCoV 229E; Table 4, CellTiter Glo) was > 5.70, the pIC50 (SARS-COV2 Mpro) was > 5.70 and the pIC50 (OC43 Mpro; Table 3) was > 5.70. The pIC50 (229E Mpro; Table 3) was > 5.70.

With N#C[C@H](C[C@@H]1CC2(CC2)NC1=O)NC(=O)[C@H](CC1CC1)NC(=O)[C@H](Cc1cccc2ccccc12)NC(=O)OCc1ccccc1 [Compound 110, benzyl((S)-1-(((S)-1-(((S)-1-cyano-2-((R)-5-oxo-4-azaspiro[2.4]heptan-6-yl)ethyl)amino)-3-cyclopropyl-1-oxopropan-2-yl)amino)-3-(naphthalen-1-yl)-1-oxopropan-2-yl)carbamate] the pEC50 (HCoV 229E; Table 4, CellTiter Glo) was > 5.70, the pIC50 (SARS-COV2 Mpro) was > 5.70 and the pIC50 (OC43 Mpro; Table 3) was > 5.70. For the same compound, the pIC50 (229E Mpro; Table 3) was > 5.70.

COCCOC(=O)N[C@H](C(=O)N1C[C@H]2[C@@H]([C@H]1C(=O)N[C@H](C#N)C[C@@H]1CC3(CC3)NC1=O)C2(C)C)C(C)(C)C [Compound 133, 2-methoxyethyl ((S)-1-((1R,2S,5S)-2-(((S)-1-cyano-2-((R)-5-oxo-4-azaspiro[2.4]heptan-6-yl)ethyl)carbamoyl)-6,6-dimethyl-3-azabicyclo[3.1.0]hexan-3-yl)-3,3-dimethyl-1-oxobutan-2-yl)carbamate] was tested, and the pEC50 (HCoV 229E; Table 4, CellTiter Glo) was > 5.70, the pIC50 (SARS-COV2 Mpro) was > 5.70 and the pIC50 (OC43 Mpro; Table 3) was > 5.70. The pIC50 (229E Mpro; Table 3) was > 5.70.

CC(C)(C)[C@H](NC(=O)c1cnccn1)C(=O)N1C[C@H]2[C@@H]([C@H]1C(=O)N[C@H](C#N)C[C@@H]1CC3(CC3)NC1=O)C2(C)C [Compound 129, (1R,2S,5S)—N-[(1S)-1-cyano-2-[(6R)-5-oxo-4-azaspiro[2.4]heptan-6-yl]ethyl]-3-[(2S)-3,3-dimethyl-2-(pyrazine-2-carbonylamino)butanoyl]-6,6-dimethyl-3-azabicyclo[3.1.0]hexane-2-carboxamide] was tested, and the pEC50 (HCoV 229E; Table 4, CellTiter Glo) was > 5.70, the pIC50 (SARS-COV2 Mpro) was > 5.70 and the pIC50 (OC43 Mpro; Table 3) was > 5.70. For the same compound, the pIC50 (229E Mpro; Table 3) was > 5.70.

For CC1(C)C[C@@H](C[C@@H](C#N)NC(=O)[C@@H]2[C@@H]3[C@H](CN2C(=O)C2(NC(=O)C(F)(F)F)CCC2)C3(C)C)C(=O)N1 [Compound 316, (1R,2S,5S)—N-[(1S)-1-cyano-2-[(3R)-5,5-dimethyl-2-oxo-pyrrolidin-3-yl]ethyl]-6,6-dimethyl-3-[1-[(2,2,2-trifluoroacetyl)amino]cyclobutanecarbonyl]-3-azabicyclo[3.1.0]hexane-2-carboxamide], the pIC50 (SARS-COV2 Mpro; [1]) was > 5.70, the pIC50 (OC43 Mpro; Table 3) was 4.52 to 5.00 and the pIC50 (229E Mpro; Table 3) was < 4.52.

For COC(C)(C)[C@H](NC(=O)C(F)(F)F)C(=O)N1C[C@H]2[C@@H]([C@H]1C(=O)N[C@H](C#N)C[C@@H]1CC3(CC3)NC1=O)C2(C)C [Compound 139, (1R,2S,5S)—N—((S)-1-cyan-2-((R)-5-oxo-4-azaspiro[2.4]heptan-6-yl)ethyl)-3-((S)-3-methoxy-3-methyl-2-(2,2,2-trifluoroacetamido)butanoyl)-6,6-dimethyl-3-azabicyclo[3.1.0]hexane-2-carboxamide], the pIC50 (SARS-COV2 Mpro; [2]) was > 5.70, the pIC50 (OC43 Mpro; Table 5) was > 5.70 and the pIC50 (229E Mpro; Table 5) was > 5.70.

In the case of CC1(C)[C@@H]2[C@@H](C(=O)N[C@H](C#N)C[C@@H]3CC4(CC4)NC3=O)N(C(=O)C(NC(=O)C(F)(F)F)C3CCC3)C[C@@H]21 (single isomer, unassigned) [372 Isomer 2], the pIC50 (SARS-COV2 Mpro; [1]) was > 5.70, the pIC50 (OC43 Mpro; Table 3) was > 5.70 and the pIC50 (229E Mpro; Table 3) was > 5.70.

C[C@@H](OC1CC1)[C@@H](NC(=O)C(F)(F)F)C(=O)N1C[C@H]2[C@@H]([C@H]1C(=O)N[C@H](C#N)C[C@@H]1CC(C)(C)NC1=O)C2(C)C (single isomer, unassigned) [Compound 298a] was tested, and the pIC50 (SARS-COV2 Mpro; [2]) was > 5.70, the pIC50 (OC43 Mpro; Table 5) was > 5.70 and the pIC50 (229E Mpro; Table 5) was > 5.70.

For C[C@@H](OC1CCC1)[C@H](NC(=O)C(F)(F)F)C(=O)N1C[C@H]2[C@@H]([C@H]1C(=O)N[C@H](C#N)C[C@@H]1CC(C)(C)NC1=O)C2(C)C [Compound 307, (1R,2S,5S)—N-[(1S)-1-cyano-2-[(3R)-5,5-dimethyl-2-oxo-pyrrolidin-3-yl]ethyl]-3-[(2S,3R)-3-(cyclobutoxy)-2-[(2,2,2-trifluoroacetyl)amino]butanoyl]-6,6-dimethyl-3-azabicyclo[3.1.0]hexane-2-carboxamide], the pIC50 (SARS-COV2 Mpro; [1]) was > 5.70, the pIC50 (OC43 Mpro; Table 3) was > 5.70 and the pIC50 (229E Mpro; Table 3) was > 5.70.

In the case of C[C@@H](OC1(C)CCC1)[C@H](NC(=O)C(F)(F)F)C(=O)N1C[C@H]2[C@@H]([C@H]1C(=O)N[C@H](C#N)C[C@@H]1CC3(CC3)NC1=O)C2(C)C [Compound 314, (1R,2S,5S)—N-[(1S)-1-cyan-2-[(6R)-5-oxo-4-azaspiro[2.4]heptan-6-yl]ethyl]-6,6-dimethyl-3-[(2S,3R)-3-(1-methylcyclobutoxy)-2-[(2,2,2-trifluoroacetyl)amino]butanoyl]-3-azabicyclo[3.1.0]hexane-2-carboxamide], the pIC50 (SARS-COV2 Mpro; [2]) was > 5.70, the pIC50 (OC43 Mpro; Table 5) was > 5.70 and the pIC50 (229E Mpro; Table 5) was > 5.70.
